What all share (type): in vivo
Assay [1] relates to plants. As to the kind of experiment: Total protein content (Lowry method, absorbance at 660 nm). Conditions: 1 g of sample in 25 ml. As to the method: Total protein content in the sample content were estimated by performing Lowry method which include the following steps:— • 1 g of samples in 25 ml were filtered through whatman filter paper 1 • 4.5 ml of a reagent comprising NaOH, sodium potassium tartrate, and CuSO4.5H2O were added and incubated for 10 mins. • After incubation, 0.5 ml of Folin-Ciocalteu's phenol reagent were added and incubated for 30 mins. • Absorbance was measured with UV Vis Spectrophotometer At 660 nm and a standard graph was plotted.

For the next assay, the system named is paddy grains. Put plainly: Analysis of micronutrient absorption levels in paddy grains by ICP. The note with it: paddy grain powder, acid digest. As to the method: Analysis of Micronutrients in Paddy Samples by ICP (Inductive Coupled Plasma) Equipment.
The method include the steps of:— • 1. 1 gm of grain powder was added to 60 ml of perchloric acid and Nitric acid (9:1) and were digested overnight. • 2. Heat the mixtures at 100 c for 2 hours until vapors change from red to white color. • 3. The resultant solution was filtered through a Whatman paper and makeup to 100 ml with 1% nitric acid. • 4. The solution was tested for micronutrients by ICP.

In assay [2] the test system is plants. As to the kind of experiment: Total polyphenol content (Folin-Ciocalteu, absorbance at 765 nm). Conditions: 1 g test sample, 70% methanol extract. As to the method: Total polyphenol content were estimated by performing the following steps:— • 10-15 ml of 70% MeOH (70 ml methanol: 30 ml water) were added to 1 g of test sample • Filter through whatman filter paper 1 and was made up to 25 ml with 70% methanol. • 5 ml of folin ciocalteu's phenol reagent were added. • Incubation for 5 mins. • 4 ml of 7.5% Na2CO3 were added and incubated for 1 hr. • absorbance was measured at 765 nm.

In the case of `COc1ccc2[nH]cc(CCNC(C)=O)c2c1` [Melatonin, N-Acetyl-5-methoxytryptamine], the “Total Protein content in %” value with plants [1] is recorded as 0.076%. Also, in the assay on paddy grains, the Al was found to be 241.3 ppm, the B worked out at 40.5 ppm, the Ca was 405.7 ppm and the Co is given as 15.4 ppm. In the assay with paddy grains, this compound came in with a Fe of 257.9 ppm, a Mg of 697.2 ppm, a Mn of 42.5 ppm and a Zn of 29.1 ppm. The “Total Phenol content in ppm” value with plants [2] is reported as 18.6 ppm.

The values are drawn from patent US20240156094A1, “MELATONIN COMPOSITION WITH METALS AND A METHOD FOR ENHANCING ENZYMATIC REACTIONS AND METABOLIC PATHWAYS IN PLANTS” (FERTIS INDIA PVT. LTD., priority 2021, published 2024).
